These results are taken from patent US8906826B2, “Herbicidal compositions comprising 4-amino-3-chloro-5-fluoro-6-(4-chloro-2-fluoro-3-methoxyphenyl) pyridine-2-carboxylic acid or a derivative thereof and imidazolinones” (Dow AgroSciences, LLC, priority 2012, dated 2014).

The structures appear in SMILES notation.

One test deals with ECHCG. In words: In-water applied, transplanted paddy rice weeds (Example II). In kind it is in vivo, Echinochloa crusgalli (L.) Beauv. The protocol: Weed seeds or nutlets of the desired test plant species were planted in puddled soil (mud) prepared by mixing a shredded, non-sterilized mineral soil (50.5 percent silt, 25.5 percent clay, and 24 percent sand, with a pH of about 7.6 and an organic matter content of about 2.9 percent) and water at a 1:1 volumetric ratio. The prepared mud was dispensed in 365 mL aliquots into 16-ounce (oz.) non-perforated plastic pots with a surface area of 86.59 square centimeters (cm^2) leaving a headspace of 3 centimeters (cm) in each pot. Mud was allowed to dry overnight prior to planting or transplanting. Rice seeds were planted in Sun Gro MetroMix® 306 planting mixture, which typically has a pH of about 6.0 to about 6.8 and an organic matter content of about 30 percent, in plastic plug trays. Seedlings at the second or third leaf stage of growth were transplanted into 860 mL of mud contained in 32-oz. non-perforated plastic pots with a surface area of 86.59 cm^2 4 days prior to herbicide application. The paddy was created by filling the headspace of the pots with 2.5 to 3 cm of water. When required to ensure good germination and healthy plants, a fungicide treatment and/or other chemical or physical treatment was applied. The plants were grown for 4-22 days in a greenhouse with an approximate 14 h photoperiod which was maintained at about 29° C. during the day and about 26° C. during the night. Nutrients were added as Osmocote® (19:6:12, N:P:K+minor nutrients) at 2 g per 16-oz. pot and 4 g per 32-oz. pot. Water was added on a regular basis to maintain the paddy flood, and supplemental lighting was provided with overhead metal halide 1000-Watt lamps as necessary. The plants were employed for testing when they reached the first through fourth true leaf stage.
Treatments consisted of the acid or esters of 4-amino-3-chloro-5-fluoro-6-(4-chloro-2-fluoro-3-methoxy-phenyl)pyridine-2-carboxylic acid (compound A) each formulated as an SC and various herbicidal components alone and in combination. Forms of compound A were applied on an acid equivalent basis.
Other herbicidal components were applied on an acid equivalent basis and included the acetolactate synthase (ALS)-inhibiting imidazolinone herbicides imazethapyr ammonium salt formulated as Newpath®, imazamox ammonium salt formulated as Beyond®, imazapic ammonium salt formulated as Plateau®, imazapyr isopropylamine salt formulated as Arsenal®, imazamethabenz-methyl (technical material), and imazaquin isopropylamine salt formulated as Scepter®.
Treatment requirements for each compound or herbicidal component were calculated based upon the rates being tested, the concentration of active ingredient or acid equivalent in the formulation, an application volume of 2 mL per component per pot, and an application area of 86.59 cm^2 per pot.
For formulated compounds, a measured amount was placed in an individual 100 or 200 mL glass vial and was dissolved in a volume of 1.25% (v/v) Agri-Dex® crop oil concentrate to obtain application solutions.
For technical grade compounds, a weighed amount was placed in an individual 100 to 200 mL glass vial and was dissolved in a volume of acetone to obtain concentrated stock solutions. […] The concentrated stock solutions obtained were diluted with an equivalent volume of an aqueous mixture containing 2.5% (v/v) crop oil concentrate so that the final application solutions contained 1.25% (v/v) crop oil concentrate.
Applications were made by injecting with a pipetter appropriate amounts of the application solutions, individually and sequentially, into the aqueous layer of the paddy. Control plants were treated in the same manner with the solvent blank. Applications were made so that all treated plant material received the same concentrations of acetone and crop oil concentrate.
The treated plants and control plants were placed in a greenhouse as described above and water was added as needed to maintain a paddy flood. […]

The test system of the next test is AVEFA. The experiment in a line: Postemergence foliar-applied, general weed control (Example III). The test is classed as in vivo, Avena fatua L. The protocol: (§1) Seeds or nutlets of the desired test plant species were planted in Sun Gro Metro-Mix® 360 planting mixture, which typically has a pH of about 6.0 to about 6.8 and an organic matter content of about 30 percent, in plastic pots with a surface area of 84.6 cm^2 and a volume of 560 cubic centimeters (cm^3). When required to ensure good germination and healthy plants, a fungicide treatment and/or other chemical or physical treatment was applied. The plants were grown for 7-31 days (d) in a greenhouse with an approximate 15 hour (h) photoperiod which was maintained at about 23-29° C. during the day and about 22-28° C. during the night. Nutrients (Peters Excel® 15-5-15 5-Ca 2-Mg) and water were added on a regular basis and supplemental lighting was provided with overhead metal halide 1000-Watt lamps as necessary. The plants were employed for testing when they reached the first, second, or third true leaf stage.
(§2) Treatment requirements were calculated based upon the rates being tested, the concentration of active ingredient or acid equivalent in the formulation, and a 12 mL application volume at a rate of 187 L/ha.
Treatments consisted of the acid or esters of 4-amino-3-chloro-5-fluoro-6-(4-chloro-2-fluoro-3-methoxy-phenyl)pyridine-2-carboxylic acid (Compound A), each formulated as an SC, and various herbicidal components alone and in combination. Forms of compound A were applied on an acid equivalent basis. […]
For treatments comprised of formulated compounds, measured amounts of compounds were placed individually in 25 mL glass vials and diluted in a volume of 1.25% (v/v) Agri-Dex® crop oil concentrated to obtain 12× stock solutions. […]
(§3) The treated plants and control plants were placed in a greenhouse as described above and watered by sub-irrigation to prevent wash-off of the test compounds. After approximately 3 weeks, the condition of the test plants as compared with that of the untreated plants was determined visually and scored on a scale of 0 to 100 percent where 0 corresponds to no injury or growth inhibition and 100 corresponds to complete kill. […]

The test system of a further test is ALOMY. The description is as above. The test is classed as in vivo, Alopecurus myosuroides Huds. As for the experimental part:
as §1, §2
Treatments consisted of the acid or esters of 4-amino-3-chloro-5-fluoro-6-(4-chloro-2-fluoro-3-methoxy-phenyl)pyridine-2-carboxylic acid (Compound A), each formulated as an SC, and various herbicidal components alone and in combination. Forms of compound A were applied on an acid equivalent basis.
Other herbicidal components were applied on an acid equivalent basis and included acetolactate synthase (ALS)-inhibiting herbicides (imidazolinone chemical class) imazethapyr ammonium salt formulated as Newpath®, and imazapic ammonium salt formulated as Plateau®.
For treatments comprised of formulated compounds, measured amounts of compounds were placed individually in 25 mL glass vials and diluted in a volume of 1.25% (v/v) Agri-Dex® crop oil concentrated to obtain 12× stock solutions. […] Application solutions were prepared by adding an appropriate amount of each stock solution (typically 1 mL) and diluted to the appropriate final concentrations with the addition of 10 mL of an aqueous mixture of 1.25% (v/v) crop oil concentrate so that the final spray solutions contained 1.25+/−0.05% (v/v) crop oil concentrate.
All stock solutions and applications solutions were visually inspected for compound compatibility prior to application. […]
as §3

Turning to `COCc1cnc(C2=NC(C)(C(C)C)C(=O)N2)c(C(=O)O)c1.N` (racemic) [Imazamox ammonium, ammonium (±)-2-[4,5-dihydro-4-methyl-4-(1-methylethyl)-5-oxo-1H-imidazol-2-yl]-5-(methoxymethyl)-3-pyridinecarboxylate], the figures for the “Visual Weed Control (%) - 25 DAA ECHCG Obs” value in the test on ECHCG (Imazamox ammonium 5.6 gae/ha) and with ECHCG (Imazamox ammonium 22.4 gae/ha) were 0% and 25%, respectively.

As to `Cc1cnc(C2=NC(C)(C(C)C)C(=O)N2)c(C(=O)O)c1.N` (racemic) [Imazapic ammonium, ammonium (±)-2-[4,5-dihydro-4-methyl-4-(1-methylethyl)-5-oxo-1H-imidazol-2-yl]-5-methyl-3-pyridinecarboxylic acid], the “Visual Weed Control (%) - 25 DAA ECHCG Obs” value in the test on ECHCG (Imazapic ammonium 8.75 gae/ha) and with ECHCG (Imazapic ammonium 17.5 gae/ha) was 20% each time. Further, the “Visual Weed Control (%) - 19 DAA AVEFA Obs” value with AVEFA (Imazapic ammonium 35 gae/ha) is listed as 70%. For the same molecule, in the test with ALOMY (Imazapic ammonium 35 gae/ha), the “Visual Control (%) - 19 DAA ALOMY Obs” value was 30%. The “Visual Weed Control (%) - 19 DAA ALOMY Obs” value in the test with ALOMY (Imazapic ammonium 35 gae/ha) stood at 30%.

As to `CCc1cnc(C2=NC(C)(C(C)C)C(=O)N2)c(C(=O)O)c1.N` (racemic) [Imazethapyr ammonium, ammonium (±)-2-[4,5-dihydro-4-methyl-4-(1-methylethyl)-5-oxo-1H-imidazol-2-yl]-5-ethyl-3-pyridinecarboxylate], the “Visual Weed Control (%) - 25 DAA ECHCG Obs” value in the test on ECHCG (Imazethapyr ammonium 8.75 gae/ha) turned out to be 0%; in the test on ECHCG (Imazethapyr ammonium 17.5 gae/ha) it was 0%; in the test with ECHCG (Imazethapyr ammonium 35 gae/ha), 50%. For the same molecule, the “Visual Weed Control (%) - 19 DAA AVEFA Obs” value with AVEFA (Imazethapyr ammonium 70 gae/ha) is 80%.

As to `COc1c(Cl)ccc(-c2nc(C(=O)O)c(Cl)c(N)c2F)c1F` [Compound A Acid, 4-amino-3-chloro-6-(4-chloro-2-fluoro-3-methoxyphenyl)-5-fluoropyridine-2-carboxylic acid], the “Visual Weed Control (%) - 25 DAA ECHCG Obs” value with ECHCG (Compound A Acid 8.75 gae/ha), in the test on ECHCG (Compound A Acid 17.5 gae/ha) and with ECHCG (Compound A Acid 35 gae/ha) was 0% throughout. For the same molecule, in the test with AVEFA (Compound A Acid 29 gae/ha), the “Visual Weed Control (%) - 19 DAA AVEFA Obs” value was found to be 10%. In the test with ALOMY (Compound A Acid 29 gae/ha), the “Visual Weed Control (%) - 19 DAA ALOMY Obs” value turned out to be 10%.

`COc1c(Cl)ccc(-c2nc(C(=O)OCc3ccccc3)c(Cl)c(N)c2F)c1F` [Compound A Benzyl Ester, benzyl ester of 4-amino-3-chloro-5-fluoro-6-(4-chloro-2-fluoro-3-methoxy-phenyl)pyridine-2-carboxylic acid]: the “Visual Weed Control (%) - 25 DAA ECHCG Obs” value in the test on ECHCG (Compound A Benzyl Ester 17.5 gae/ha) came out at 10%; with ECHCG (Compound A Benzyl Ester 35 gae/ha) it was 45%. Moreover, in the test on ALOMY (Compound A Benzyl Ester 24 gae/ha), the “Visual Control (%) - 19 DAA ALOMY Obs” value amounted to 20%.
